What all share (assay): NCI anticancer screen, dose series, 48 h
For assay [1], the system named is OVCAR-8 ovarian.
The subject of assay [2] is CCRF-CEM leukemia.
For assay [3], the system named is HL-60(TB) leukemia.
Assay [4] deals with MDA-MB-435.
Assay [5] concerns TK-10 renal.
The subject of assay [6] is CAKI-1 renal.
Assay [7] concerns OVCAR-4 ovarian.
Assay [8] deals with SK-MEL-28 melanoma.
Assay [9] relates to A498 renal.
Assay [10] deals with SNB-19 CNS.

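48-hour exposure; five concentrations; linearly interpolated endpoints. Abbreviation: GI50, concentration required for 50% inhibition of growth. Definition used: TGI = concentration required for complete inhibition of growth.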

For the compound `COc1cc(C(=O)/C=C/c2cc(C(=O)c3cc(OC)c(OC)c(OC)c3)ccc2OC)ccc1N`, the GI50 is 0.846 µM in assay [1]; 0.35 µM in assay [2]; 1.48 µM in [3]; 1.19 µM in assay [4]; 3.61 µM in assay [5]; 0.669 µM in assay [6]. Moreover, the GI50 in assay [7] is 0.982 µM; in assay [8] it was 1.36 µM; in assay [9], 2.14 µM. Moreover, the TGI in assay [1] is 6.12 µM; in [2], greater than 100 µM; in assay [3] it was 6.82 µM; in assay [4], greater than 100 µM; in [5] it was 18 µM; in assay [6], 19.4 µM. The TGI in assay [7] was greater than 100 µM; in assay [8], 3.75 µM; in assay [9], 5.92 µM.
Consider `CCCCCCCC/C=C/CCCCCCCC1=NCC[N+]1(CCO)CCO`, for which the GI50 in assay [1] is 2.66 µM; in [2] it was 1.6 µM; in assay [3], 1.75 µM; in [4] it was 2.35 µM; in assay [5], 1.94 µM; in assay [6], 2.41 µM. Also, the GI50 in assay [7] was 3.87 µM; in assay [8] it was 9.71 µM; in assay [10], 4.49 µM; in assay [9], 2.21 µM. Besides, the TGI was 10 µM in assay [1]; 4.46 µM in assay [2]; 4.68 µM in [3]; 7.95 µM in [4]; 4.39 µM in [5]; 8.32 µM in assay [6]. The TGI in [7] worked out at 14.9 µM; in assay [8] it was 21.6 µM; in [10], 25.2 µM; in assay [9] it was 14.2 µM.
As for `CCN(CC)c1cc(/C=C/c2ccc(OC)c(OC)c2)nc2cc(F)c(F)cc12`, the GI50 in assay [1] was 5.54 µM; in [2] it was 3.18 µM; in assay [3], 12.2 µM; in assay [4], greater than 100 µM; in assay [5], 2.99 µM; in [6], 19 µM. The GI50 is 27 µM in [7], 14.9 µM in assay [8], 2.34 µM in [10] and 1.95 µM in [9]. Further, the TGI was 80.8 µM in [1]; 11 µM in assay [2]; 31.3 µM in assay [3]; greater than 100 µM in [4]; 8.75 µM in [5]; greater than 100 µM in assay [6]. Moreover, the TGI in assay [7] was greater than 100 µM; in assay [8] it was greater than 100 µM; in assay [10] it was 7.09 µM; in assay [9], 6.2 µM.
`CCn1c2c(n(CC)c1=S)-c1c(n(CC)c(=S)n1CC)SSSS2`: the TGI in [1] came to 23.3 µM; in assay [2] it was 9.42 µM; in assay [3] it was 8.76 µM; in assay [4], 27.5 µM; in assay [5], 28.4 µM; in assay [6] it was 33.1 µM. Besides, the TGI is 20.1 µM in assay [7], 18.7 µM in assay [8], greater than 100 µM in assay [10] and 63.8 µM in assay [9].
For `CCC(C)n1cc(C)c2c(C(=O)NCc3c(C)cc(C)[nH]c3=O)cc(Br)cc21` (stereo not given), the GI50 in assay [1] is 63.7 µM; in assay [2], 30.8 µM; in assay [3], 24.3 µM; in assay [4], 27.1 µM; in [5], greater than 100 µM; in assay [6] it was 94.1 µM. The GI50 in assay [7] was 37.2 µM; in assay [8], 72.5 µM; in [10] it was greater than 100 µM; in [9], 38.4 µM. Also, the TGI in [1] was greater than 100 µM; in assay [2] it was greater than 100 µM; in assay [3], 58.4 µM; in assay [4], greater than 100 µM; in assay [5], greater than 100 µM; in assay [6], greater than 100 µM. The TGI in assay [7], in [8], in [10] and in assay [9] was greater than 100 µM throughout.
As to `CN(C)c1ccc(C(=C2C=CC(=[N+](C)C)C=C2)c2ccc(N(C)C)cc2)cc1` (tested in a mixture with another compound), the GI50 in assay [2] was 0.231 µM; in assay [3], 0.125 µM; in assay [4], 0.0626 µM; in assay [5] it was 0.0394 µM; in [6] it was 0.276 µM; in assay [7], 0.183 µM. Besides, the figures for the GI50 in [8] and in assay [9] were 0.141 µM and 0.0607 µM, respectively. Further, the TGI in assay [2] came out at 19.5 µM; in [3] it was 0.677 µM; in assay [4], 0.676 µM; in assay [5], 0.321 µM; in [6] it was 1.38 µM; in [7], 1.32 µM. The TGI was 1.37 µM in [8], 1.56 µM in [10] and 0.343 µM in [9].

(Values after PubChem BioAssay (NCI).)
